One assay concerns CEM cells. Briefly: Flow cytometry cell cycle and apoptosis (subG1) analysis. It is filed as cell-based. Conditions: for distribution of CEM cells in cell cycle phases (FIG. 2): increasing concentrations. As for the experimental part:
The leukemia cancer CEM cells were trypsinized, seeded in 6 well plates, and immediately incubated with the respective compounds. […] Triton X-100, and 50 μg/ml propidium iodide in PBS. DNA content was assessed with a flow cytometer (Cell Lab Quanta SC—MPL, Beckman Coulter, Calif., USA). In a histogram analysis, distribution of cells into the subG1 (“apoptotic cells”), the G0/G1, S and the G2/M peak was quantified using software MultiCycle AV (Phoenix Flow Systems, CA, USA).
Background: In flow cytometry, cells or beads pass a laser one at a time.

In the next assay the test system is leukemia cells (CEM). In words: Western blot analysis of apoptosis related proteins. The format is cell-based. Conditions: 24 h. As for the experimental part: The cells were seeded in a density 2.2×10^4 cells/cm^2 using culture medium in 100-mm culture dishes. Immediately the cells were treated by novel saponins: 3 (1; 2.5; 5 μM), 6 (0.1; 0.25; 0.5 μM) and 7 (5; 7.5; 10 μM). DMSO was used as a vehicle for controls. After 24 h treatment, the cells were washed three times with cold PBS (10 mM, pH 7.4) and lysed in ice-cold protein extract RIPA buffer (20 mM Tris-HCl, pH 7.4, 5 mM EDTA, 2 mM EGTA, 100 mM NaCl, 2 mM NaF, 0.2% Nonidet P-40, 30 mM PMSF, 1 mM DTT, […] of aprotinin and leupeptin). The lysate was collected into microfuge tube and incubated on ice for 1 h. It was then cleared by centrifugation at 10,000×g for […] at 4° C., and supernatant was collected, aliquoted, and stored at −80° C. Proteins in lysates were quantified by the Bradford method and then diluted with Laemmli electrophoresis buffer. Proteins were then separated on 10% or 12% SDS-polyacrylamide gels, transferred onto nitrocellulose membranes (Bio-Rad Laboratories, CA, USA) and stained with Ponceau S to check equal protein loading. The membranes were blocked with 5% (w/v) non-fat dry milk and 0.1% Tween-20 in PBS for 2 h and probed with the specific primary antibodies overnight. After washing in PBS and PBS with 0.1% Tween-20, the membranes were probed with horseradish peroxidase-conjugated secondary antibodies and visualized with chemiluminescent detection reagent West Pico Supersignal (Thermo Fisher Scientific, Rockford, USA). To confirm equal protein loading, immunodetection was performed with the anti-α-tubulin monoclonal antibody. The experiments were repeated three times. The protein expressions in treated cells were compared to untreated controls.
(A western blot detects proteins with antibodies after separation by electrophoresis.)

The test system of another assay is caspase-3/7 in CEM cells. Briefly: Activity of caspases-3/7 in treated CEM cells (Ac-DEVD-AMC substrate). Conditions: for activity of caspases-3/7 compared with untreated control: 24 h, 3 (1; 2.5; 5 μM), 6 (0.1; 0.25; 0.5 μM). The format is cell-based. On the procedure: The CEM cells treated with the novel compounds were harvested by centrifugations and homogenized in an extraction buffer (10 mM KCl, 5 mM HEPES, 1 mM EDTA, 1 mM EGTA, 0.2% CHAPS, inhibitors of proteases, pH 7.4) on ice for 20 min. The homogenates were clarified by centrifugation at 10,000 g for […] at 4° C., the proteins were quantified by the Bradford method and diluted to the same concentration. Lysates were then incubated for 1 h with […] Ac-DEVD-AMC as a substrate (Sigma-Aldrich) in an assay buffer (25 mM PIPES, 2 mM EGTA, 2 mM MgCl2, 5 mM DTT, pH 7.3). For negative controls, the lysates were supplemented with […] Ac-DEVD-CHO as a caspase-3/7 inhibitor (Sigma-Aldrich). The fluorescence of the product was measured using a Fluoroskan Ascent microplate reader (Labsystems) at 346/442 nm (ex/em). Here, we determined the activity of caspase-3/7 in CEM cells exposed to 3, 6 or 7 using a fluorogenic substrate Ac-DEVD-AMC and/or caspase 3/7 inhibitor […]. Cells were treated in a dose-dependent manner with compounds 3 (1; 2.5; 5 μM), 6 (0.1; 0.25; 0.5 μM) and 7 (5; 7.5; 10 μM).

Assay [1] deals with cervical carcinoma cell line HeLa. In words: Calcein AM cytotoxicity assay, HeLa. The format is cell-based. As to conditions: 72 h, means ± SD, three independent experiments in triplicate. As for the experimental part: (§1) Stock solutions (10 mmol/l) of the tested compounds were prepared by dissolving relevant quantity of the substance in DMSO. […] Calcein AM was obtained from Molecular Probes (Invitrogen Corporation, CA, USA).
(§2) All cell lines were cultured in DMEM medium (Sigma, Mo., USA). Medium was supplemented with 10% heat-inactivated fetal bovine serum, 2 mmol/l L-glutamine and 1% penicillin-streptomycin. The cell lines were maintained under standard cell culture conditions at 37° C. and 5% CO2 in a humid environment. Cells were subcultured twice or three times a week using the standard trypsinization procedure.
(§3) All cell lines were cultured in DMEM medium (Sigma, Mo., USA) supplemented with 10% fetal calf serum, 2 mM glutamine, 100 U/ml penicillin and 100 μg/ml streptomycin, at 37° C. in a fully humidified atmosphere containing 5% CO2. Suspensions of these lines (ca. 1.0×10^5 cells/ml) were placed in 96-well microtitre plates and after 3 h of stabilization the tested compounds were added in serially diluted concentrations. Saponins were dissolved in dimethylsulfoxide (DMSO) before addition to cultures. Control cultures were treated with DMSO alone. The final concentration of DMSO in the reaction mixtures never exceeded 0.6%. Four-fold dilutions of the intended test concentration were added at time zero in 20 μl aliquots to the microtitre plate wells. Usually, each test compound was evaluated at six 4-fold dilutions and in routine testing; the highest well concentration was 50 μM, although this varied in a few cases, depending on the test compound. After 72 h of culture, the cells were incubated with Calcein AM solution (Molecular Probes) for 1 h. The fluorescence of viable cells was quantified using a Fluoroscan Ascent instrument (Microsystems).

In assay [2] the test system is normal human fibroblasts BJ. Briefly: Calcein AM cytotoxicity assay, normal fibroblasts BJ. The format is cell-based. As to conditions: 72 h, means ± SD, three independent experiments in triplicate. On the procedure: as §1, §2, §3
The subject of assay [3] is malignant melanoma cell line G-361. In words: Calcein AM cytotoxicity assay, G-361. Conditions: 72 h, means ± SD, three independent experiments in triplicate. It is filed as cell-based, human. On the procedure: as §1, §2, §3
For assay [4], the system named is lung carcinoma cell line A549. Briefly: Calcein AM cytotoxicity assay, A549. It is filed as cell-based, human. As to conditions: 72 h, means ± SD, three independent experiments in triplicate, read-out: IC50, A 549. On the procedure: as §1, §2, §3
Assay [5] deals with human glioblastoma cell line T98. Briefly: Calcein AM cytotoxicity assay, T98. The format is cell-based. Conditions: 72 h, means ± SD, three independent experiments in triplicate. As for the experimental part: Stock solutions (10 mmol/l) of the tested compounds were prepared by dissolving relevant quantity of the substance in DMSO. Dulbecco's modified Eagle's medium (DMEM, RPMI 1640, F-12 medium), fetal bovine serum (FBS), L-glutamine, penicillin, streptomycin were purchased from Sigma (MO, USA). Calcein AM was obtained from Molecular Probes (Invitrogen Corporation, CA, USA).
The screening cell lines (T-lymphoblastic leukaemia cell line CEM, breast carcinoma cell line MCF-7, cervical carcinoma cell line HeLa, human glioblastoma cell line T98, human malignant melanoma G-361, human osteogenic sarcoma cell line HOS, carcinomic human alveolar basal epithelial cells A549, human colon carcinoma cells HCT 116 and human fibroblasts BJ) were obtained from the American Type Culture Collection (Manassas, Va., USA). All cell lines were cultured in DMEM medium (Sigma, Mo., USA). Medium was supplemented with 10% heat-inactivated fetal bovine serum, 2 mmol/l L-glutamine and 1% penicillin-streptomycin. The cell lines were maintained under standard cell culture conditions at 37° C. and 5% CO2 in a humid environment. Cells were subcultured twice or three times a week using the standard trypsinization procedure.
as §3, with “Cytotoxic activities of the novel compounds, obtained according to this invention, were tested in vitro against following cancer cell lines: T-lymphoblastic leukemia cell line CEM; breast carcinoma cell line MCF7, lung carcinoma cell line A549, cervical carcinoma cell line HeLa, malignant melanoma cell line G-361, osteosarcoma cell line HOS, human glioblastoma cell line T98, human colon carcinoma cells HCT 116 and normal human fibroblasts BJ. All” for “All”, “(Microsystems). The percentage of surviving cells in each well was calculated from the equation […]=(ODdrug exposed well/mean ODcontrol wells)×100%. The IC50 value, the drug concentration lethal to 50% of the tumour cells, was calculated from the obtained dose-response curves.” for “(Microsystems).”

The test system of assay [6] is T-lymphoblastic leukemia cell line CEM. In words: Calcein AM cytotoxicity assay, CEM. It is filed as cell-based. As to conditions: 72 h. As for the experimental part:
as §1, §2, §3

For assay [7], the system named is breast carcinoma cell line MCF7. Briefly: Calcein AM cytotoxicity assay, MCF7. It is filed as cell-based, human. As for the experimental part:
as §1, §2, §3

The text below walks through data of patent US8552161B2, “Saponin compounds, methods of preparation thereof, use thereof and pharmaceutical compositions” (Uniwersytet W Bialymstoku, priority 2009, dated 2013).

In general, IC50 refers to the concentration that gives 50% inhibition.

Regarding `COc1ccc(C(=O)OCC(C)C2(O)C(OC3OCC(O)C(OC4OCC(O)C(O)C4OC(=O)c4ccc(OC)cc4)C3OC(C)=O)CC3C4CC=C5CC(O)CCC5(C)C4CCC32C)cc1` [Compound 3, (20R)-21-O-(4-methoxybenzoyl)-20-methylopregn-5-ene-3β,16β,17α,21-tetraol 16-O-{2-O-(4-methoxybenzoyl)-β-D-xylopyranosyl-(1→3)-2′-O-acetyl-α-L-arabinopyranoside], the “subG1 phase of the cell cycle (apoptotic cells)” value with CEM cells (CEM cell line after treatment) is “increase in subG1 phase”. For the same compound, in the assay with CEM cells, the “distribution of CEM cells in cell cycle phases (FIG. 2)” value was “increased the number of S-phase and G2/M cells with concomitant decrease of G0/G1 cells in dose-dependent manner”. In addition, in the assay with CEM cells (CEM, 24 h, 0.5 μM), the “Apoptosis subG1” value amounted to 11%, the “Cell cycle distribution G0/G1” value came to 17%, the “Cell cycle distribution G2/M” value worked out at 26% and the “Cell cycle distribution S” value was 46%. In the assay with leukemia cells (CEM) (dose-dependent (FIG. 5)), the “PARP (Western blot)” value is on record as “cleavage of PARP” and the “caspase-3 (Western blot)” value is “accumulation of caspase-3”. In addition, in the assay with caspase-3/7 in CEM cells, the “activity of caspases-3/7 compared with untreated control” value is recorded as “twofold enhancement” and the “caspase-3/7 activity after treatment with higher concentrations” value is “caspase-3/7 activity decreased”.

As to `C=CCCCCCCCCC(=O)OC[C@@H](C)[C@@]1(O)[C@@H](O[C@@H]2OC[C@H](O)[C@H](O[C@@H]3OC[C@@H](O)[C@H](O)[C@H]3OC(=O)c3ccc(OC)cc3)[C@H]2OC(C)=O)C[C@H]2[C@@H]3CC=C4C[C@@H](O)CC[C@]4(C)[C@H]3CC[C@@]21C` [Compound 6, (20R)-21-O-(Undec-10-enoyl)-20-methylpregn-5-ene-3β,16β,17α,21-tetraol 16-O-{2-O-(4-methoxybenzoyl)-β-D-xylopyranosyl-(1→3)-O-acetyl-α-L-arabinopyranoside}], the “distribution of CEM cells in cell cycle phases (FIG. 2)” value with CEM cells is “increased the number of S-phase and G2/M cells with concomitant decrease of G0/G1 cells in dose-dependent manner”. In the assay with leukemia cells (CEM) (dose-dependent (FIG. 5)), the “PARP (Western blot)” value is reported as “cleavage of PARP”, the “antiapoptotic Bcl-2 protein” value is given as “increased”, the “caspase-3 (Western blot)” value is listed as “accumulation of caspase-3” and the “expression of tumour suppressor protein p53” value was “enhanced expression”. Also, in the assay on leukemia cells (CEM) (same concentrations (FIG. 5)), the “phosphorylation of pRb S780” value is reported as “increase of phosphorylation of pRb S780”. In addition, in the assay on caspase-3/7 in CEM cells, the “activity of caspases-3/7 compared with untreated control” value is given as “twofold enhancement” and the “caspase-3/7 activity after treatment with higher concentrations” value is “caspase-3/7 activity decreased”.

As for `CCCCCCCCCCCCCCCCCC(=O)OC[C@@H](C)[C@@]1(O)[C@@H](O[C@@H]2OC[C@H](O)[C@H](O[C@@H]3OC[C@@H](O)[C@H](O)[C@H]3OC(=O)c3ccc(OC)cc3)[C@H]2OC(C)=O)C[C@H]2[C@@H]3CC=C4C[C@@H](O)CC[C@]4(C)[C@H]3CC[C@@]21C` [Compound 10, (20R)-21-O-Octadecanoyl-20-methylpregn-5-ene-3β,16β,17α,21-tetraol 16-O-{2-O-(4-methoxybenzoyl)-β-D-xylopyranosyl-(1→3)-2′-O-acetyl-α-L-arabinopyranoside}], the IC50 in [1] was 435 ± 64 nM; in assay [2], 80 ± 4 nM; in assay [3] it was 300 ± 100 nM; in assay [4] it was 550 ± 180 nM; in assay [5], 210 ± 50 nM; in assay [6] (Calcein AM assay, means ± SD, three independent experiments in triplicate), 58 ± 1 nM. In addition, the IC50 in [7] (Calcein AM assay, 72 h, means ± SD, three independent experiments in triplicate) is 195 ± 21 nM. Besides, the “dose-dependent antiproliferative activity, number of viable cells (FIG. 1)” value in [6] (CEM, increasing concentrations, Calcein AM) is listed as “significantly reduce the number of living cells”; in [7] (MCF7, 72 h, increasing concentrations, Calcein AM), “significantly reduce the number of living cells”.
